Assay results published in patent US4921865A, “Aminoacylates of glycerol acetal” (Societe de Conseils de Recherches et d'Applications …, priority 1987, dated 1990).
One block for each molecule: values may come before it.

Tests used:
[1] = target: T1, [^3 H]-PAF binding, platelet membrane (Oryctolagus cuniculus, UniProt G1TEI7); assay: inhibition of specific [3H]-PAF binding to rabbit platelet membranes; settings: 1 nM [3H]-PAF, 0°C 1 h 30
T1 construct: Platelet membrane homogenate was stored at -80° C; from tissue; host or cells: rabbit platelets (membrane homogenate from lysed washed platelets)
T1 sequence (G1TEI7 1-342): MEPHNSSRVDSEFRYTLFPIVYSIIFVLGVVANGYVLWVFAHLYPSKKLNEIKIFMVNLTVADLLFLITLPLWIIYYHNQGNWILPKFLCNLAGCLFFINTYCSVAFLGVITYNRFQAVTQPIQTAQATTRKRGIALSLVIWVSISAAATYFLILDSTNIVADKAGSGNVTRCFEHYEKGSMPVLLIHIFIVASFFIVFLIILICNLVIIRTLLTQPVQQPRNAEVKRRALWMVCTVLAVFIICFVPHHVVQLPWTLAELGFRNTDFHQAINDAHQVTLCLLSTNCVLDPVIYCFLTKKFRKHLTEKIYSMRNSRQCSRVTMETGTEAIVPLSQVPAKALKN
Protocol: Synthetic tritiated [^3 H]-PAF used was in ethanol solution with a specific activity of 59.5 ci/mmols. Unlabelled PAF and lyso-PAF were solubilized in ethanol solution and stored at -80° C. The compounds were solubilized in DMSO.
Rabbit whole blood (6 volumes) was drawn from the central ear artery into 1 volume of ACD solution (citric acide 1.4 g, sodium citrate 2 5 g, Dextrose 2 g per 100 ml of H2 O) and centrifuged at 150 g for 15 minutes. The platelet-rich plasma (PRP) was carefully removed and centrifuged for 15 minutes at 1000 g. The platelet pellet was then washed 3 times: twice in Tris-HCl buffer 10 mM, pH 7.4 containing NaCl 150 mM, MgCl2 5 mM, EDTA 2 mM and the last time in the same but sodium-free buffer.
The platelet pellet was resuspended in this latter buffer, quickly frozen in liquid nitrogen and slowly thawed at room temperature for at least 3 times as described by T. Y. Shen et al. The lysed platelets were centrifuged at 100,000 g for 30 minutes in a BECKMAN model L8.55 ultra centrifuge (rotor 50.2 Ti). Platelet membrane homogenate was stored at -80° C. and used within two weeks without noticeable changes in PAF-acether binding characteristics.
Protein contain was determined by the Lowry method using bovine serum albumine as standard.
60 to 100 μg of membrane proteins were added to a final volume of 1 ml in plastic tubes containing 1 nM [^3 H]-PAF in Tris-HCl 10 mM pH 7 buffer containing 0.025 % bovine serum albumin and incubated with or without unlabelled PAF or PAF-antagonists. The incubation was carried out for 1 h 30 at 0° C. The bound [^3 H]-PAF was separated from the free [^3 H]-PAF by immediate filtration through whatman GF/C glass fiber filters under vacuum (Brandel system). The reaction and the filters were washed 3 times with 5 ml of ice-cold buffer. The filters were then placed into polyethylene phials filled up with 10 ml of liquid scintillation fluid and the radioactivity was measured by an LKB β counter with 45% efficiency.
The non specific binding was determined in the presence of 10^-6 M of unlabelled PAF. The specific binding was calculated by substracting non specific binding from the total binding. The inhibition by compounds on the specific [^3 H]-PAF binding was determined as the percent inhibition by the equation: [formula]

[2] = tested on: PAF-induced [Ca^2+ ]i mobilization, washed rabbits platelets; assay: inhibition of intracytosolic free calcium mobilization induced by PAF in washed rabbit platelets; type: cell-based; settings: PAF 2×10^-9 M; for inhibition of PAF-induced [Ca^2+ ]i mobilization (in words): 5×10^-7 M; for inhibition at 0.05 µM: Oryctolagus cuniculus, Platelet, 5×10^-8 M, read-out: inhibition of PAF effect on [Ca^2+ ]i
Protocol: Blood was taken from the auricular artery of the rabbit on citric acid/sodium citrate/dextrose and anticoagulan and the washed platelets were prepared according to Ardlie et al., Brit. J. Pharmacology, 19, 7-17, 1970. They were incubated with acetylsalicylic salt (100 μM, 30 minutes) to avoid thromboxane induced aggregation. They were then loaded with the fluorescent calcium indicator dye quin 2 by incubation with quin 2 aceto-methylester (15 μM in DMSO, 20 minutes at room temperature) which penetrates the cell membrane and after hydrolysed is trapped in the platelet. Drugs were preincubated with platelets for 15 minutes simultaneously to CP/CPK mixture which destroys secreted ADP.
Fluorescent measurement was then performed (excitation λ=339 nm, emission λ=494 nm) after PAF addition to platelet suspension. The fluorescence intensity is proportional to the cytosolic free calcium level [Ca^2+ ]i which can be quantified as described by Tsien et al., J. Cell Biol., 94, 325-334, 1982.

[3] = tested on: antigen-induced bronchoconstriction; assay: antigen-induced bronchoconstriction in passively sensitized guinea-pigs; type: in vivo, guinea-pig (Hartley); settings: 5 mg/kg IV
[4] = tested on: antigen-induced leukopenia; assay: antigen-induced leukopenia in passively sensitized guinea-pigs; type: in vivo, guinea-pig (Hartley); settings: 5 mg/kg IV; for Percentage Inhibition (leukopenia): vs control
[5] = tested on: antigen-induced thrombocytopenia; assay: antigen-induced thrombocytopenia in passively sensitized guinea-pigs; type: in vivo, guinea-pig (Hartley); settings: 5 mg/kg IV; for Percentage Inhibition (thrombocytopenia): vs control

IC50 [1]: 35 nM
Structure (SMILES): CCCCCCCCCCCCCCCCCC1(C)OCC(COC(=O)CCCCC[n+]2cccc3ccccc32)O1 (centres unmarked) [Example 10, 2-heptadecyl 2-methyl 4-[6'-(N-quinolinium)hexanoyloxymethyl) 1,3-dioxolanbromide]
inhibition of PAF-induced [Ca^2+ ]i mobilization (in words) [2]: totally inhibit | inhibition at 0.05 µM [2]: 75%

IC50 [1]: 35 nM
Structure (SMILES): CCCCCCCCCCCCCCCCCC1(C)OCC(COC(=O)CCCCC[n+]2ccccc2)O1 (centres unmarked) [Example 9, 2-heptadecyl 2-methyl 4-[6'-(N-pyridinium)hexanoyloxymethyl] 1,3 dioxolan bromide]
Percentage Bronchoconstriction [3]: 51.3 +/- 14.2% | effect on antigen-induced bronchoconstriction (in words) [3]: without significantly reducing | Percentage Variation (bronchoconstriction) ([3]; vs control): -28.7% | effect on antigen-induced leukopenia (in words) [4]: antagonizes | Percentage Decrease in leukocytes number ([4]; 1 mn): -15.6 +/- 6.6% | Percentage Inhibition (leukopenia) ([4]; 1 mn): +32.0% | Percentage Decrease in leukocytes number ([4]; 5 mn): -8.7 +/- 10.7% | Percentage Inhibition (leukopenia) ([4]; 5 mn): -78.0% | Percentage Decrease in leukocytes number ([4]; 10 mn): -12.3 +/- 14.1% | Percentage Inhibition (leukopenia) ([4]; 10 mn): -77.2% | effect on antigen-induced thrombocytopenia (in words) [5]: antagonizes | Percentage Inhibition (thrombocytopenia) ([5]; 1 mn): -104.4% | Percentage Inhibition (thrombocytopenia) ([5]; 5 mn): -91.2% | Percentage Inhibition (thrombocytopenia) ([5]; 10 mn): -39.8% | inhibition of PAF-induced [Ca^2+ ]i mobilization (in words) [2]: totally inhibit | inhibition at 0.05 µM [2]: 44%
